Columns and labels:
Assay type in all cases: cell-based, mouse
[1] = tested on: β-galactosidase in CMV-LacZ C2C12 myoblasts; experiment: CMV-LacZ secondary screen in C2C12 myoblasts (β-Gal stabilizing assay); conditions: CMV-LacZ C2C12 myoblasts
How it was run: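 First, C2C12 myoblasts were transfected with a linearized CMV-LACZ vector and clonal lines selected by FDG β-gal assay. Then cells were exposed to compounds at 0.5, 1, 5, 10, 20 and 40 μM in 96-well format, two replicates each, and β-gal measured.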

[2] = tested on: α7 integrin (LacZ reporter in α7+/LacZ myotubes); experiment: Myotube α7 integrin FDG assay (Burkin assay in myotubes, 96-well); conditions: myotubes
[3] = tested on: β-galactosidase in CMV-LacZ C2C12 myotubes; experiment: CMV-LacZ secondary screen in C2C12 myotubes (β-Gal stabilizing assay); conditions: C2C12 CMV-LacZ myotubes, fold relative to DMSO
How it was run: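 CMV-LacZ C2C12 line (clonal, FDG-screened); myoblasts/myotubes dosed 0.5–40 μM (0.5, 1, 5, 10, 20, 40 μM); n=2 per point; β-gal stabilization read-out.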

[4] = tested on: α7 integrin (LacZ reporter in α7βgal+/− myoblasts); experiment: Myoblast α7+/LacZ integrin FDG assay (Burkin assay in myoblasts, 96-well); conditions: α7+/LacZ myoblasts, 96-well

| SMILES | CMV-LACZ in Myoblasts (β-galactosidase activity relative to DMSO) ([1]; 0.5 uM) | CMV-LACZ in Myoblasts (β-galactosidase activity relative to DMSO) ([1]; 1 uM) | CMV-LACZ in Myoblasts (β-galactosidase activity relative to DMSO) ([1]; 5 uM) | CMV-LACZ in Myoblasts (β-galactosidase activity relative to DMSO) ([1]; 10 uM) | CMV-LACZ in Myoblasts (β-galactosidase activity relative to DMSO) ([1]; 20 uM) | CMV-LACZ in Myoblasts (β-galactosidase activity relative to DMSO) ([1]; 40 uM) | Burkin Assay in Myotubes, α7 integrin LacZ reporter signal relative to DMSO ([2]; 0.5 uM) | Burkin Assay in Myotubes, α7 integrin LacZ reporter signal relative to DMSO ([2]; 1 uM) | Burkin Assay in Myotubes, α7 integrin LacZ reporter signal relative to DMSO ([2]; 5 uM) | Burkin Assay in Myotubes, α7 integrin LacZ reporter signal relative to DMSO ([2]; 10 uM) | Burkin Assay in Myotubes, α7 integrin LacZ reporter signal relative to DMSO ([2]; 20 uM) | Burkin Assay in Myotubes, α7 integrin LacZ reporter signal relative to DMSO ([2]; 40 uM) | CMV-LACZ in Myotubes, signal relative to DMSO ([3]; 0.5 uM) | CMV-LACZ in Myotubes, signal relative to DMSO ([3]; 1 uM) | CMV-LACZ in Myotubes, signal relative to DMSO ([3]; 5 uM) | CMV-LACZ in Myotubes, signal relative to DMSO ([3]; 10 uM) | CMV-LACZ in Myotubes, signal relative to DMSO ([3]; 20 uM) | CMV-LACZ in Myotubes, signal relative to DMSO ([3]; 40 uM) | Burkin Assay in Myoblasts, signal relative to DMSO ([4]; 0.5 uM) | Burkin Assay in Myoblasts, signal relative to DMSO ([4]; 1 uM) | also measured |
| --- | --- | --- | --- | --- | --- | --- | --- | --- | --- | --- | --- | --- | --- | --- | --- | --- | --- | --- | --- | --- | --- |
| Cc1cc([N+](=O)[O-])ccc1NC(=O)C(C)N1CCN(c2ccccn2)CC1 (stereo not drawn) [MLS000764729-01] | 0.9865 | 0.9520 | 1.0259 | 0.8880 | 1.1200 | 0.7504 | 1.055 | 1.084 | 1.008 | 0.972 | 0.681 | 0.6075 | 1.0358 | 1.1432 | 1.0779 | 0.9634 | 0.9656 | 1.1900 | 1.088 | 1.0582 | Burkin Assay in Myoblasts, signal relative to DMSO ([4]; 5 uM): 0.9816; Burkin Assay in Myoblasts, signal relative to DMSO ([4]; 10 uM): 0.9694; Burkin Assay in Myoblasts, signal relative to DMSO ([4]; 20 uM): 0.9581; Burkin Assay in Myoblasts, signal relative to DMSO ([4]; 40 uM): 0.726 |
| Br.COc1ccc(C(=O)CN2CCCCC2)cc1 [MLS001004864-01] | 1.2650 | 0.9288 | 1.2276 | 1.0417 | 1.2930 | 0.9933 | 0.949 | 1.025 | 0.9784 | 0.9618 | 0.6075 | 0.376 | 0.9657 | 0.9610 | 1.0697 | 0.9501 | 0.9653 | 0.8884 | 1.1396 | 1.193 | Burkin Assay in Myoblasts, signal relative to DMSO ([4]; 5 uM): 1.109; Burkin Assay in Myoblasts, signal relative to DMSO ([4]; 10 uM): 1.023; Burkin Assay in Myoblasts, signal relative to DMSO ([4]; 20 uM): 1.105; Burkin Assay in Myoblasts, signal relative to DMSO ([4]; 40 uM): 0.8883 |
| Cn1c(-c2ccccc2)cc2ccccc21 [MLS001215074-01] | 0.7877 | 0.7800 | 1.1754 | 1.0294 | 1.1277 | 1.1432 | 0.7886 | 0.8307 | 1.05 | 1.132 | 0.7505 | 0.8488 | 0.8752 | 0.9238 | 0.8364 | 0.8583 | 0.8700 | 0.9930 | 1.023 | 0.9004 | Burkin Assay in Myoblasts, signal relative to DMSO ([4]; 5 uM): 0.9431; Burkin Assay in Myoblasts, signal relative to DMSO ([4]; 10 uM): 0.9738; Burkin Assay in Myoblasts, signal relative to DMSO ([4]; 20 uM): 0.7339; Burkin Assay in Myoblasts, signal relative to DMSO ([4]; 40 uM): 0.5974 |

— patent US9980943B2, “Methods of treating muscular dystrophy” (BOARD OF REGENTS OF THE NEVADA SYSTEM OF HIGHER EDUCATION, …, priority 2013, dated 2018)
